Measured values reported in PMC9981942, “Pharmacokinetics and tissue distribution of Ramulus Mori (Sangzhi) alkaloids in rats and its effects on liver enzyme activity” (Frontiers in Pharmacology, 2023).
Values joined by “and” are separate entries in the source; they are usually repeats but may differ in a detail not shown here. Equal entries are not always repeated. Where two headings read alike, the source gives them in different places.

Columns and labels:
[1] = Tissue distribution after single oral SZ-A (40 mg/kg) in SD rats, plasma and 12 tissues; type: in vivo
Experimental: (§1) Twenty SD rats were randomly classified into four groups corresponding to four-time points (5 and 30 min, 4 and 12 h) (n = 20; 5 animals per time point) that received SZ-A solution (40 mg/kg) via oral administration. After the completion of dose administration, plasma and tissue samples (derived from the heart, liver, spleen, lung, kidney, aortic blood vessels, brown adipose tissue, subcutaneous adipose tissue, abdominal adipose tissue, muscle (thigh skeletal muscle), pancreas, and brain) were collected at predetermined time points. Twenty-eight ICR mice were randomly classified into four groups (n = 7 per group) corresponding to four-time points (5 and 30 min, 4 and 12 h) that received SZ-A solution (20 mg/kg) via oral administration. After the completion of dose administration, tissue samples (derived from the heart, liver, spleen, lung, kidney, aortic blood vessels, brown adipose tissue, abdominal adipose tissue, muscle (thigh skeletal muscle), pancreas, and brain) were collected at predetermined time points.
(§2) Collected tissue samples were washed with normal saline. The surface moisture was removed by blotting gently with filter paper, and the weight was recorded. After adding an appropriate amount of normal saline, these tissue samples were ground into homogenates using a cryogenic grinder (JX-CL, Shanghai Jingxin, Shanghai, China). The obtained homogenates were stored at −80°C until LC-MS/MS analysis.
Primary pharmacokinetic parameters, including Cmax, Tmax, area under the plasma concentration-time curve (AUC), t1/2, clearance rate, and the apparent volume of distribution, were calculated using DAS 3.2.8 (Bio Guider Co., Shanghai, China).

[2] = Tissue distribution after single oral SZ-A (20 mg/kg) in ICR mice; type: in vivo
Experimental: as §1, §2

[3] = set-up: method as in Yang et al., 2017; conditions: ref Yang et al., 2017, cited from earlier work
[4] = set-up: method as in Mackay et al., 2003; conditions: rats; ref Mackay et al., 2003; cited from earlier work
[5] = test system: CYP450s in RLMs (other isoenzymes); experiment: Effect on activity of rat liver microsome isoenzymes other than CYP2C11; conditions: SZ-A 8.899 μg/mL, DNJ 20 μM, FA 5 μM, DAB 8 μM
[6] = test system: major CYP450s in HLMs; experiment: Effect on activity of the major CYP450s in human liver microsomes (all isoforms together); conditions: final concentration SZ-A 8.899 μg/mL (equivalent to DNJ 20 μM), FA 5 μM, DAB 8 μM
[7] = Sprague-Dawley, rat, Kidney, n=5
[8] = Sprague-Dawley, rat, Liver, n=5
[9] = Sprague-Dawley, rat, Pancreas, n=5
[10] = Sprague-Dawley, rat, Plasma, n=5
[11] = Sprague-Dawley, rat, muscle (thigh skeletal muscle), Muscle, n=5
[12] = rat, Abdominal adipose tissue, n=5
[13] = rat, Subcutaneous adipose tissue, n=5

OC[C@H]1NC[C@@H](O)[C@@H]1O [DAB, 1,4-dideoxy-1,4-imino-D-arabinitol]
time of distribution peak in the aortic vessel [1]: ≤ 5 min
tissues with the highest concentrations [1]: kidney, followed by the liver, aortic vessels, and brown adipose tissue
AUC(0-t) ([1]; Aortic blood vessels, n=5): 0.962 ± 0.354 µg·h/mL
CLz ([1]; Plasma, n=5): 1.95 ± 0.26 L/h/kg
Vz ([1]; Plasma, n=5): 1.61 ± 0.24 L/kg
half-life ([1]; Sprague-Dawley, rat, Brown adipose tissue, n=5): 40.8 ± 0.6 min
AUC(0-t) ([1]; Sprague-Dawley, rat, Brown adipose tissue, n=5, read-out: AUC(0-t)): 0.716 ± 0.259 µg·h/mL
Tmax ([1]; Sprague-Dawley, rat, Brown adipose tissue, n=5, read-out: Tmax): 30 min
Cmax [1, 7]: 13.3 ± 2.89 µg/mL
half-life [1, 7]: 165 ± 30.6 min
AUC(0-t) ([1]; Sprague-Dawley, rat, Kidney, n=5, read-out: AUC(0-t)): 37.8 ± 7.17 µg·h/mL
Tmax ([1]; Sprague-Dawley, rat, Kidney, n=5, read-out: Tmax): 30 min
Cmax [1, 8]: 2.07 ± 0.396 µg/mL
half-life [1, 8]: 229 ± 44.4 min
AUC(0-t) ([1]; Sprague-Dawley, rat, Liver, n=5, read-out: AUC(0-t)): 8.12 ± 2.15 µg·h/mL
Tmax ([1]; Sprague-Dawley, rat, Liver, n=5, read-out: Tmax): 30 min
Cmax ([1]; Sprague-Dawley, rat, Lung, n=5): 0.2 ± 0.0223 µg/mL
half-life ([1]; Sprague-Dawley, rat, Lung, n=5): 31.8 ± 16.2 min
Tmax ([1]; Sprague-Dawley, rat, Lung, n=5, read-out: Tmax): 13.2 ± 14.4 min
Cmax [1, 9]: 0.122 ± 0.0169 µg/mL
half-life [1, 9]: 40.2 ± 2.4 min
AUC(0-t) ([1]; Sprague-Dawley, rat, Pancreas, n=5, read-out: AUC(0-t)): 0.854 ± 0.09 µg·h/mL
Tmax ([1]; Sprague-Dawley, rat, Pancreas, n=5, read-out: Tmax): 114 ± 115 min
Cmax [1, 10]: 0.973 ± 0.215 µg/mL
half-life [1, 10]: 34.2 ± 1.2 min
AUC(0-t) ([1]; Sprague-Dawley, rat, Plasma, n=5, read-out: AUC(0-t)): 2.36 ± 0.349 µg·h/mL
Tmax ([1]; Sprague-Dawley, rat, Plasma, n=5, read-out: Tmax): 30 min
Cmax [1, 11]: 0.188 ± 0.0384 µg/mL
half-life [1, 11]: 929 ± 700 min
AUC(0-t) ([1]; Sprague-Dawley, rat, muscle (thigh skeletal muscle), Muscle, n=5, read-out: AUC(0-t)): 1.55 ± 0.212 µg·h/mL
Tmax ([1]; Sprague-Dawley, rat, muscle (thigh skeletal muscle), Muscle, n=5, read-out: Tmax): 67.2 ± 97.2 min
Cmax [1, 12]: 0.212 ± 0.0582 µg/mL
half-life [1, 12]: 43.8 ± 3.6 min
AUC(0-t) ([1]; rat, Abdominal adipose tissue, n=5, read-out: AUC(0-t)): 0.46 ± 0.146 µg·h/mL
Tmax ([1]; rat, Abdominal adipose tissue, n=5, read-out: Tmax): 25.2 ± 11.4 min
Cmax ([1]; rat, Aortic blood vessels, n=5): 0.756 ± 0.536 µg/mL
half-life ([1]; rat, Aortic blood vessels, n=5): 27.6 ± 14.4 min
Tmax ([1]; rat, Aortic blood vessels, n=5, read-out: Tmax): 4.8 min
Cmax ([1]; rat, Brown adipose tissue, n=5): 0.269 ± 0.0828 µg/mL
Cmax ([1]; rat, Heart, n=5): 0.114 ± 0.0242 µg/mL
half-life ([1]; rat, Heart, n=5): 42.6 ± 0.6 min
AUC(0-t) ([1]; rat, Heart, n=5, read-out: AUC(0-t)): 0.469 ± 0.213 µg·h/mL
Tmax ([1]; rat, Heart, n=5, read-out: Tmax): 72 ± 94.2 min
AUC(0-t) ([1]; rat, Lung, n=5, read-out: AUC(0-t)): 0.333 ± 0.108 µg·h/mL
Cmax ([1]; rat, Spleen, n=5): 0.144 ± 0.0399 µg/mL
half-life ([1]; rat, Spleen, n=5): 45 ± 4.2 min
AUC(0-t) ([1]; rat, Spleen, n=5, read-out: AUC(0-t)): 0.294 ± 0.087 µg·h/mL
Tmax ([1]; rat, Spleen, n=5, read-out: Tmax): 30 min
Cmax [1, 13]: 0.112 ± 0.0415 µg/mL
half-life [1, 13]: 44.4 ± 1.8 min
AUC(0-t) ([1]; rat, Subcutaneous adipose tissue, n=5, read-out: AUC(0-t)): 0.232 ± 0.075 µg·h/mL
Tmax ([1]; rat, Subcutaneous adipose tissue, n=5, read-out: Tmax): 30 min
Tmax ([1]; rat, other tissues (not named), tissues not named separately for that alkaloid, read-out: time of peak concentration in other tissues (converted)): 30 min
accumulation in tissues ([1]; up to 12 h): no long-term accumulation
distribution in aortic vessels compared with other tissues [2]: lower than that in other tissues
tissues with the highest concentrations [2]: kidney, followed by the liver
form excreted ([3]; material conservation within 24 h after oral administration of SZ-A): mainly excreted in their original forms
oral absolute bioavailability ([3]; rats, after oral administration of SZ-A): 78.23% and > 70%
pharmacokinetic profile versus dose ([3]; rats, oral SZ-A 20–500 mg/kg): non-linear pharmacokinetics
form excreted [4]: mainly excreted unchanged
effect on other isoenzymes in RLMs [5]: no obvious effect
effect on the major CYP450s in HLMs, either inhibition or activation [6]: no significant effect
